Laboratory results taken from ChEMBL document CHEMBL1770095, “Discovery of histone deacetylase 8 selective inhibitors” (Bioorg Med Chem Lett, 2011).

Legend:
[1] = biological target: Histone deacetylase 3/Nuclear receptor corepressor 2 (HDAC3/NCoR2) (Homo sapiens, UniProt O15379); experiment: Inhibition of full length HDAC3/NCoR2 assessed as 7-amino-4-methylcoumarin release from fluorophore conjugated substrate after 5 mins by fluorescence assay; type: protein-complex assay
Histone deacetylase 8 = biological target: T1, Histone deacetylase 8 (Homo sapiens, UniProt Q9BY41); experiment: Inhibition of full length HDAC8 assessed as 7-amino-4-methylcoumarin release from fluorophore conjugated substrate after 5 mins by fluorescence assay
T1 sequence (Q9BY41 whole entry): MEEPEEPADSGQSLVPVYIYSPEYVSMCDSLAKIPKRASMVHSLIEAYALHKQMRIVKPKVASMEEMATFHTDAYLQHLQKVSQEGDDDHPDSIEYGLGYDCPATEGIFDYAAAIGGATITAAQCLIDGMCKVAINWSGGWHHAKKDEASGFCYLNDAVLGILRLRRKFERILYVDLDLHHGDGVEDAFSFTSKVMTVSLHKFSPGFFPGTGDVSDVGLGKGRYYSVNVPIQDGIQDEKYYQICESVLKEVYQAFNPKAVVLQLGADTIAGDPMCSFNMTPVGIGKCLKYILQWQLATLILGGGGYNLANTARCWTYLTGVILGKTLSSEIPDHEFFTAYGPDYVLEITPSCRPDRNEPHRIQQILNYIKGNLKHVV

Histone deacetylase 2 = Histone deacetylase 2 (Homo sapiens, UniProt Q92769); experiment: Inhibition of full length HDAC2 assessed as 7-amino-4-methylcoumarin release from fluorophore conjugated substrate after 5 mins by fluorescence assay
Histone deacetylase 2, sequence (Q92769 whole entry): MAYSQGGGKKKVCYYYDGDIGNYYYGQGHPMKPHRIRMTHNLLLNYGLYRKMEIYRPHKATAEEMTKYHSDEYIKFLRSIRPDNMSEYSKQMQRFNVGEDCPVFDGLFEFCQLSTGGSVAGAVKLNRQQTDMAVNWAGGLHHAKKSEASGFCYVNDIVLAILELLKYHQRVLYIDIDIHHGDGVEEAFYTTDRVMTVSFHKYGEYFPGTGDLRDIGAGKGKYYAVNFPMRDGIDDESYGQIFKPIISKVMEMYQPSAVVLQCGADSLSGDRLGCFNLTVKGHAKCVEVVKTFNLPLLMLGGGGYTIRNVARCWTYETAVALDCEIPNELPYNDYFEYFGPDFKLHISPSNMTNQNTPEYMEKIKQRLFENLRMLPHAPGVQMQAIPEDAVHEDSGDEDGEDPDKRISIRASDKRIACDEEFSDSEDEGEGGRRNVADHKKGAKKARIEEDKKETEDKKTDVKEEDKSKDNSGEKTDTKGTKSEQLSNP

Histone deacetylase 3/Nuclear receptor corepressor 2 (HDAC3/NCoR2), sequence (O15379 whole entry): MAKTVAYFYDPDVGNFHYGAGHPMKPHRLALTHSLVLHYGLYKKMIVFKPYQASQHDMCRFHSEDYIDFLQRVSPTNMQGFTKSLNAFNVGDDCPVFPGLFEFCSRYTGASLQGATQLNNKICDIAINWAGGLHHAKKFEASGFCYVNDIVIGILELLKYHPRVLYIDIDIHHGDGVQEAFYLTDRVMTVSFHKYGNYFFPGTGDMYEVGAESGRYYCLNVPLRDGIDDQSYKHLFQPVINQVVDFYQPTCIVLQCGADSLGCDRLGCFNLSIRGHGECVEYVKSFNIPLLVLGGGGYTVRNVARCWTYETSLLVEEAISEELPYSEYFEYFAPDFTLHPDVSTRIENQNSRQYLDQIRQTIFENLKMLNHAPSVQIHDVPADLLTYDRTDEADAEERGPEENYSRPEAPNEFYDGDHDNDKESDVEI
Histone deacetylase 3/Nuclear receptor corepressor 2 (HDAC3/NCoR2), sequence (Q9Y618 whole entry, further chain): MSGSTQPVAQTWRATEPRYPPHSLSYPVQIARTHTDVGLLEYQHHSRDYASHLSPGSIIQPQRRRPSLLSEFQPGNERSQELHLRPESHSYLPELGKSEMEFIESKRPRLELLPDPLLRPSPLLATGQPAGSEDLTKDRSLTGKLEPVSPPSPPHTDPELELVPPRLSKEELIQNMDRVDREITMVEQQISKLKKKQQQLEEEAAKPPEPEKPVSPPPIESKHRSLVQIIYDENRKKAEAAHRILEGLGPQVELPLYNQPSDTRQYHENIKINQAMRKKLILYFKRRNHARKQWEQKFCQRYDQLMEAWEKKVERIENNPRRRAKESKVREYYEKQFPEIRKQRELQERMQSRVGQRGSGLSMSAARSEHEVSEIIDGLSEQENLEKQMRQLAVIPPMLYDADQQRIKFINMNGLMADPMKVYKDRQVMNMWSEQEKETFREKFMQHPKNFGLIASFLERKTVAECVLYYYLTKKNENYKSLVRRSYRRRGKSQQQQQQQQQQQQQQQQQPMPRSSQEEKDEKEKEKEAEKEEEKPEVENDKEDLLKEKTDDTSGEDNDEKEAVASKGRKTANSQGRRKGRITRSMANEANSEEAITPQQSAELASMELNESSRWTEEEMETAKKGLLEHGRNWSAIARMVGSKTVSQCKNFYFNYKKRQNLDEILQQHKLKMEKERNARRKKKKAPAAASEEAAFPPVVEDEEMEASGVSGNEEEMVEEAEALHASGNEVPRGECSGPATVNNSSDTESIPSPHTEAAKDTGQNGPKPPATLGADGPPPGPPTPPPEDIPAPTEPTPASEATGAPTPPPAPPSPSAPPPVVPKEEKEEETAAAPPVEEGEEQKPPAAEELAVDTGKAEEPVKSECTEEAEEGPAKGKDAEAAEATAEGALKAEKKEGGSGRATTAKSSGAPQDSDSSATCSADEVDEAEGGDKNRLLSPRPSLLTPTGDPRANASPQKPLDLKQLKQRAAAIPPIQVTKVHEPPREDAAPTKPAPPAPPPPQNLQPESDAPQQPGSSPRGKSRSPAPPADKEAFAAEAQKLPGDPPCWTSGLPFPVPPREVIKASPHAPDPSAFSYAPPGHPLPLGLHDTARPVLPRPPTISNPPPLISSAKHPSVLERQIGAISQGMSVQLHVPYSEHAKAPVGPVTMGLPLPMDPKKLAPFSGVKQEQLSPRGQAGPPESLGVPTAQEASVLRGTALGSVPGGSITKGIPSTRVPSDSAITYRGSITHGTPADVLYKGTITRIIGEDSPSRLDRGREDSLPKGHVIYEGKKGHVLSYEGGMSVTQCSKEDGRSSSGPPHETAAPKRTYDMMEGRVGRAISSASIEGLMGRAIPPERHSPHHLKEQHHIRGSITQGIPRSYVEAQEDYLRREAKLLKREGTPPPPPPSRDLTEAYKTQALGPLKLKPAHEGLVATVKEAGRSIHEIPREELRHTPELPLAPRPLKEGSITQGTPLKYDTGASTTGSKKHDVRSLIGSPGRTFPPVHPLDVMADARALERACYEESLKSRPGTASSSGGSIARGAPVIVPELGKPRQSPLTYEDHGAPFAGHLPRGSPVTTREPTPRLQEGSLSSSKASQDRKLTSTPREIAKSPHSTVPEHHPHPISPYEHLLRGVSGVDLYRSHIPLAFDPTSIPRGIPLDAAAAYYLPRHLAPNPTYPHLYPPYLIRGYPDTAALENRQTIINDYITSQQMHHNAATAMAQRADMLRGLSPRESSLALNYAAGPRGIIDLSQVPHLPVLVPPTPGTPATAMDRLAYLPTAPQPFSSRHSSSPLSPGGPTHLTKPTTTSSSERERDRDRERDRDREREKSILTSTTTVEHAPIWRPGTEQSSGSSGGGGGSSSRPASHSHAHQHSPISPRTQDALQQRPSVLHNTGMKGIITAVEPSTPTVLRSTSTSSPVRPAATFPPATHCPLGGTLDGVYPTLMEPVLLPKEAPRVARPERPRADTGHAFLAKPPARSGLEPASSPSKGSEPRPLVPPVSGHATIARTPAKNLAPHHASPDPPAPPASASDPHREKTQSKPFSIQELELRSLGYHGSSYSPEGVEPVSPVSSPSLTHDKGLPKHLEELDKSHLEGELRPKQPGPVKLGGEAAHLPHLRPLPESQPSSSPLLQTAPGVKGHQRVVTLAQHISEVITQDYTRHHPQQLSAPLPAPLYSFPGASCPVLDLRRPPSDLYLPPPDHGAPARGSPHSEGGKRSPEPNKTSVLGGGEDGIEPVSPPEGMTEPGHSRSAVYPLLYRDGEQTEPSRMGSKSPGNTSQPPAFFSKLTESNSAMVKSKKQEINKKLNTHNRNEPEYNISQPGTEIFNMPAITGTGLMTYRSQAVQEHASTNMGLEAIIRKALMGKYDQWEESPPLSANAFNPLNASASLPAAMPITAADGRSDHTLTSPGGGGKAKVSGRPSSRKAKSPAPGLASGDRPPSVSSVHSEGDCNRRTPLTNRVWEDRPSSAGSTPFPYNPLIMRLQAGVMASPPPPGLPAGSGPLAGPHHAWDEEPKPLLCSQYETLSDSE

Compound | IC50 [1] [µM] | IC50 (Histone deacetylase 8) [µM] | IC50 (Histone deacetylase 2) [µM]
C#CCOc1ccc(/C=N/NC(=O)CCCCCCC(=O)NO)cc1 | 0.0031 | 0.29 | 0.0021
O=C1CC/C=C/CCC(=O)N(Cc2cccc(/C=N/NC(=O)c3cccc(C(=O)NO)c3)c2)C[C@@H](c2ccccc2)O1 | 15 | 0.023 | 3.6
O=C1CC/C=C/CCC(=O)N(Cc2cccc(/C=N/NC(=O)c3cccc(C(=O)NO)c3)c2)C[C@H](c2ccccc2)O1 | 15 | 0.11 | 5

Now from value to compound:

IC50 [1] [µM] | IC50 (Histone deacetylase 8) [µM] | IC50 (Histone deacetylase 2) [µM] | Compound
18 | 0.052 | 20 | O=C(NO)c1cccc(C(=O)N/N=C/c2ccccc2)c1
6.2 | 0.029 | 6.3 | C#CCOc1ccc(/C=N/NC(=O)c2cccc(C(=O)NO)c2)cc1
